Experimental data reported in publication PMC8009417, “Selective killing of homologous recombination-deficient cancer cell lines by inhibitors of the RPA:RAD52 protein-protein interaction” (PLoS ONE, 2021).

Tests used:
[1] = molecular target: T1, RPA:RAD52 protein-protein interaction (Homo sapiens, UniProt P43351); test: FluorIA (Fluorescence-based protein-protein Interaction Assay), GFP-RAD52 binding to plate-coated RPA; conditions: polynomial curve fitting; 15 dose concentrations 0.03–500 μM, triplicate; RAD52(1–303) positive control; read-out: EC50 in FluorIA (inhibition of RPA:RAD52 PPI)
T1 construct: made in house
T1 sequence (P43351 1-418): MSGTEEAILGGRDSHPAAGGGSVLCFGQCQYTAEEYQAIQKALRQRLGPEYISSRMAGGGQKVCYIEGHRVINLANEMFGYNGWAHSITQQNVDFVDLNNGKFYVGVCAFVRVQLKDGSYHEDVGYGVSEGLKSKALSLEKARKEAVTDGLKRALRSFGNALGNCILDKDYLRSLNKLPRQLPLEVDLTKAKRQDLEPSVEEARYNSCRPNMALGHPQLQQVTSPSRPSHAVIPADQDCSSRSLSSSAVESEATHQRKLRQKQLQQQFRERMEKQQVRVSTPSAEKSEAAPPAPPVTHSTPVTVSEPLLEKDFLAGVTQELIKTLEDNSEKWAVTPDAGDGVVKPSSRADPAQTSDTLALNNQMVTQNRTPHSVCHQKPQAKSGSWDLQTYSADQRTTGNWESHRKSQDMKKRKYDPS
Method: A newly developed fluorescence-based assay for detecting protein-protein interactions, FluorIA was used to identify SMIs of RPA:RAD52 PPI. The detailed FluorIA protocol is published elsewhere. Briefly, 384-well plates (Thermo Fisher Scientific, #460518) were coated with purified RPA. Then compounds or controls were added and incubated with freshly prepared GFP-RAD52. RAD52(1–303) without GFP-tag and buffer (including DMSO) only were used as controls. Then the relative fluorescence (RFU) was measured using a POLARstar OPTIMA plate reader (BMG LABTECH) on emptied plates at an excitation/emission (for eGFP) of 485/520 nm at 2500 gain setting.
Three chemical libraries the 355-member SelleckChem Kinase Inhibitor Library, the 1200-member Prestwick Chemical Library, and the 100,000-member ChemBridge library were used for the screening. The screening of the SelleckChem Kinase Inhibitor and the Prestwick libraries were performed at 10 and 100 μM each in duplicate. The screening of the ChemBridge library was conducted at 100 μM. […] The statistical criteria for a hit were fully described in Al-Mugotir et al.. Each hit was verified in triplicate at 10 and 100 μM.
The in vitro EC50 value of each hit was determined with FluorIA. The chemicals were serially diluted by two-fold increments from 0.030 to 500 μM and analyzed in triplicate with FluorIA. RAD52(1–303) was used as a positive control and buffer with DMSO was used as a negative control. Candidate SMIs with strong inhibition were purchased, and a 1D NMR analysis was carried out to verify their identities. The eleven candidates SMIs were purchased as follows: 5137134, 5246481, 52614577,5316833, 5373030, and 7623574 from Chembridge HIT2LEAD, 5989499 from Wuxi lab network, 5375405 from Aronis, quinacrine and mitoxantrone from Sigma Aldrich, and doxorubicin from LC labs. D-I03 was purchased from Molport. Their effectiveness in inhibiting the RPA:RAD52 PPI was confirmed after purchase with the FluorIA as described above (S1 Fig).
Supplementary file pone.0248941.s001.tif: S1 Fig Validation experiments of eleven hits with the FlourIA. Sixteen treatment concentrations were used (0.030–500 μM) increasing by two-fold increments of each molecule/drug obtained as a hit in HTS FluorIA. RAD52(1–303) without GFP-tag and buffer (including DMSO) only were used as controls. Percent inhibition was calculated as follows: [(RFUSMI—RFURAD52(1–303)) / (RFUDMSO—RFURAD52(1–303))]*100, where RFU is relative fluorescence unit. An average of triplicate measurements was used. The treatment points for quinacrine and doxorubicin beyond 125 μM were showing characteristics of aggregation and were not used. (TIF) Click here for additional data file.

[2] = test system: UWB1.289 cells corrected with wild-type BRCA1 gene (BRCA1+); test: Cell viability assay (PrestoBlue, 72 h), UWB1.289+BRCA1; format: cell-based; conditions: Homo sapiens, UWB1289, estimated from the graphs
Excerpt: (§1) BRCA1-deficient UWB1.289 cells corrected with wild-type BRCA1 gene (BRCA1+; closed triangle) and parental BRCA1-deficient UWB1.289 (BRCA1-; closed circle). Two PARPi-resistant cell lines derived from UWB1.289, UWB1.289.SYr12 (closed diamond) and UWB1.SYr13 (X), were also examined.
(§2) UWB1.289 (a gift from Dr. Lee Zou, Harvard Medical School, Boston, MA) were derived from a serous ovarian carcinoma with a germline BRCA1 mutation and a deletion of the wild-type allele. […] Two PARP-resistant cell lines, SYr12 and SYr13, were derived from the UWB1.289. The Mammary Epithelial growth media, along with SupplementMix solution for UWB1 cell lines, were obtained from PromoCell GmbH and mixed as described.
(§3) Cells were seeded 5 x 10^3 cells per well in 96-well plates in a 90 μL volume per well one day before treatment. Cells in 96-well plates were incubated with increasing concentrations of the compound or vehicle control (1% DMSO) for 72 hours. Each treatment plate contained nine concentrations of a compound in sextuplicate. Growth inhibition was determined using PrestoBlue reagent (Life Technologies, #A13261). Fluorescent measurements were taken using a Spectramax M5 plate reader (MDS). To assess cells’ replication in the absence of compounds as a control, six wells on each plate were treated with vehicle to be read in triplicate at the initial treatment day (T0) and at 72-hour read (T100).

[3] = test system: PARPi-resistant UWB1.SYr13 cells; test: Cell viability assay (PrestoBlue, 72 h), UWB1.SYr13; format: cell-based; conditions: Homo sapiens, estimated from the graphs
Excerpt: as §1, §2, §3

SMILES: O=C1c2c(O)ccc(O)c2C(=O)c2c(NCCNCCO)ccc(NCCNCCO)c21 [Mitoxantrone, mitoxantrone]
- EC50 [1]: 29700 nM
- EC50 [2]: 3000 nM
- EC50 [3]: 2500 nM
